compound: Cn1c(=O)n(-c2ccc(C(C)(C)C#N)cc2)c2c3cc(-c4cnc5ccccc5c4)ccc3ncc21 [Dactolisib] + COc1cccc2cc(-c3nc([C@H]4CC[C@H](C(=O)O)CC4)n4ncnc(N)c34)[nH]c12 [OSI-027] (partner 0.5 µM); assay: relative viability (nuclei count vs DMSO), 5 days (fraction); higher = more cells survive; conditions: first compound 0.2 µM
Summary of the method: (§1)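 Relative viability is defined as nuclei in treated wells over nuclei in vehicle wells. Duplicate plates were run and medians reported. Lung cancer cell lines in 1536-well plates were dosed by pin tool one day after seeding, with one drug or with a fixed anchor-drug dose plus five library-drug doses (not always all listed) in √10 steps, and nuclei were counted after 5 days.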

PC-14 gave a relative viability of 0.0989.

compound: C1CCC(CC1)N(CCNCCC2=C3C(=C(C=C2)O)NC(=O)CO3)C(=O)CCNCCC4=CC(=C(C=C4)Cl)Cl [AZ505] + C[C@]1(O)C[C@@H](c2nc(-c3ccc4ccc(-c5ccccc5)nc4c3)c3c(N)nccn32)C1 [Linsitinib] (partner 1 µM); assay: as above; conditions: first compound 0.08 µM
Summary of the method: as §1

Point of comparison: BEN, relative viability 0.735. Against it:
- HCC-44 — lower, 0.671
- LU99A — lower, 0.524
- HARA — higher, 0.897
- NCI-H322M — higher, 0.895
- LCLC-97TM1 — lower, 0.257
- NCI-H2009 — higher, 1.1
- A-427 — higher, 1.13
- NCI-H661 — lower, 0.583
- NCI-H1734 — lower, 0.654
- NCI-H460 — lower, 0.654
- NCI-H2347 — lower, 0.6
- SW 1573 — lower, 0.666
- 201T — higher, 1.03
- NCI-H1915 — higher, 1.14
- HCC-827 — higher, 0.923
- LXF-289 — higher, 0.884
- NCI-H23 — lower, 0.561
- NCI-H647 — higher, 1.08
- CAL-12T — lower, 0.72
- NCI-H1651 — higher, 0.911
- EPLC-272H — higher, 0.922
- NCI-H2228 — lower, 0.418
- NCI-H1792 — lower, 0.552
- NCI-H1355 — higher, 0.787
- NCI-H3122 — higher, 0.963
- NCI-H1437 — higher, 1.02
- NCI-H1755 — higher, 0.968
- NCI-H2023 — lower, 0.685
- HCC-15 — higher, 0.877
- PC-14 — higher, 0.88

same assay, conditions: first compound 0.253 µM

Point of comparison: 201T, relative viability 0.98. Against it:
- HCC-44 — lower, 0.691
- LU99A — lower, 0.647
- BEN — higher, 1.1
- HARA — lower, 0.894
- HCC-78 — lower, 0.642
- NCI-H322M — lower, 0.863
- LCLC-97TM1 — lower, 0.2
- NCI-H2009 — higher, 1.22
- A-427 — higher, 1.08
- NCI-H661 — lower, 0.567
- NCI-H1734 — lower, 0.908
- NCI-H460 — lower, 0.899
- NCI-H2347 — lower, 0.603
- SW 1573 — lower, 0.828
- NCI-H1915 — higher, 1.1
- HCC-827 — lower, 0.958
- NCI-H647 — higher, 1.36
- CAL-12T — lower, 0.901
- NCI-H1651 — lower, 0.977
- EPLC-272H — higher, 1.14
- NCI-H2228 — lower, 0.651
- NCI-H1792 — lower, 0.652
- NCI-H1355 — lower, 0.783
- NCI-H3122 — higher, 1.03
- NCI-H1437 — higher, 1.15
- NCI-H1755 — higher, 0.984
- NCI-H2023 — lower, 0.626
- HCC-15 — lower, 0.909
- PC-14 — lower, 0.948

same assay, conditions: first compound 0.8 µM

Point of comparison: NCI-H2023, relative viability 0.669. Against it:
- HCC-44 — lower, 0.619
- LU99A — lower, 0.507
- BEN — higher, 0.904
- HARA — higher, 0.695
- HCC-78 — lower, 0.571
- NCI-H322M — higher, 0.983
- LCLC-97TM1 — lower, 0.16
- NCI-H2009 — higher, 1.12
- A-427 — higher, 1.09
- NCI-H661 — lower, 0.544
- NCI-H1734 — higher, 0.801
- NCI-H460 — higher, 0.674
- NCI-H2347 — lower, 0.668
- SW 1573 — higher, 0.849
- 201T — higher, 0.993
- NCI-H1915 — higher, 1.03
- HCC-827 — higher, 0.856
- LXF-289 — higher, 0.973
- NCI-H23 — lower, 0.651
- NCI-H647 — higher, 1.04
- CAL-12T — higher, 0.684
- NCI-H1651 — higher, 0.895
- EPLC-272H — higher, 1.04
- NCI-H2228 — lower, 0.53
- NCI-H1792 — lower, 0.424
- NCI-H1355 — higher, 0.81
- NCI-H3122 — higher, 0.911
- NCI-H1437 — higher, 1.08
- NCI-H1755 — higher, 0.924
- HCC-15 — higher, 0.842
- PC-14 — higher, 0.922

same assay, conditions: first compound 2.53 µM

Point of comparison: LXF-289, relative viability 0.943. Against it:
- HCC-44 — lower, 0.654
- LU99A — lower, 0.573
- BEN — lower, 0.891
- HARA — lower, 0.737
- HCC-78 — lower, 0.619
- NCI-H322M — higher, 0.981
- LCLC-97TM1 — lower, 0.201
- NCI-H2009 — higher, 1.11
- A-427 — higher, 1.11
- NCI-H661 — lower, 0.491
- NCI-H1734 — higher, 0.949
- NCI-H460 — lower, 0.716
- NCI-H2347 — lower, 0.543
- SW 1573 — lower, 0.872
- 201T — higher, 1.01
- NCI-H1915 — lower, 0.942
- HCC-827 — higher, 0.977
- NCI-H23 — lower, 0.554
- NCI-H647 — higher, 1.29
- CAL-12T — lower, 0.748
- NCI-H1651 — higher, 0.962
- EPLC-272H — higher, 1.34
- NCI-H2228 — lower, 0.549
- NCI-H1792 — lower, 0.509
- NCI-H1355 — lower, 0.684
- NCI-H3122 — higher, 1.01
- NCI-H1437 — higher, 1.08
- NCI-H1755 — higher, 0.985
- NCI-H2023 — lower, 0.814
- HCC-15 — lower, 0.837
- PC-14 — lower, 0.881

same assay, conditions: first compound 8 µM

Point of comparison: LU99A, relative viability 0.565. Against it:
- HCC-44 — higher, 0.663
- BEN — higher, 1.12
- HARA — higher, 0.773
- HCC-78 — higher, 0.7
- NCI-H322M — higher, 0.95
- LCLC-97TM1 — lower, 0.199
- NCI-H2009 — higher, 1.15
- A-427 — higher, 1.09
- NCI-H661 — higher, 0.646
- NCI-H1734 — higher, 0.883
- NCI-H460 — higher, 0.817
- NCI-H2347 — higher, 0.714
- SW 1573 — higher, 0.829
- 201T — higher, 0.968
- NCI-H1915 — higher, 1.04
- HCC-827 — higher, 0.964
- LXF-289 — higher, 0.96
- NCI-H23 — lower, 0.545
- NCI-H647 — higher, 1.22
- CAL-12T — higher, 0.9
- NCI-H1651 — higher, 1.16
- EPLC-272H — higher, 1.33
- NCI-H2228 — lower, 0.49
- NCI-H1792 — higher, 0.577
- NCI-H1355 — higher, 0.826
- NCI-H3122 — higher, 0.967
- NCI-H1437 — higher, 1.03
- NCI-H1755 — higher, 0.974
- NCI-H2023 — lower, 0.552
- HCC-15 — higher, 0.919
